Source: patent US7863329B2 (Eli Lilly and Company, priority 2005, dated 2011)

Biological target: T1, cloned human glucagon receptor (Homo sapiens, UniProt P47871)
T1 construct: expressed in transfected cells; host or cells: 293 HEK cells, hygromycin-selected; crude plasma membranes
Test: Glucagon Receptor (hGlucR) Binding Assay (SPA, I-125 glucagon competition)
From the text: The second supernate is combined with the first supernate.
The specific activity is 2200 Ci/mmol.

T1 sequence (P47871 26-477): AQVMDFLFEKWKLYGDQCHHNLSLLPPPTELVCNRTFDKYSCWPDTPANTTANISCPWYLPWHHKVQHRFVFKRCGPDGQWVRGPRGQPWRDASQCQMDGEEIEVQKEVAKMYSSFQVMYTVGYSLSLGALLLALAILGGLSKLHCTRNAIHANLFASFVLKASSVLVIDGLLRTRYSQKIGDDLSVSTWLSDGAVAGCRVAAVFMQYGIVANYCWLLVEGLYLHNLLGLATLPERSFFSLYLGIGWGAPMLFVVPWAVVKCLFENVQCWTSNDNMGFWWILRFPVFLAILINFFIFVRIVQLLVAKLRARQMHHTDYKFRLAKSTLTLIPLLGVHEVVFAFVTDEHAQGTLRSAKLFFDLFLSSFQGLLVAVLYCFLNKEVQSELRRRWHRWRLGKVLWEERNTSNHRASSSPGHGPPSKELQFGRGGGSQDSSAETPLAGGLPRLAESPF

| Compound | Ki |
| --- | --- |
| CC(C)CC(Cc1ccc(-c2ccc(C(C)(C)C)cc2)cc1)c1ccc(C(=O)NCCC(=O)O)cc1 (centres unmarked) | 266 nM |
| CCCCCCC(Cc1ccc(-c2ccc(C(F)(F)F)cc2)cc1)c1ccc(C(=O)NCCC(=O)O)cc1 (centres unmarked) | 232 nM |
